Source: patent US10457709B2, “Antimicrobial peptides, their variants and uses” (priority 2015, dated 2019)
Like-named read-outs stand apart in the source and are kept apart here. Square brackets hold non-standard residues; d marks the D form. Peptide text beside a SMILES is read from it.

Key:
[1] = system: Candida albicans clinical strains; assay: MIC, clinical yeast strains; format: cell-based; parameters: unit: μg/ml
Method in brief: (§1)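 Antifungal testing uses potato dextrose broth; antibacterial testing uses Mueller Hinton broth. Cell density is set to 5.0×10^5 cfu/ml and incubation runs 20–24 h at 37° C. MIC is the lowest concentration, within 0.125–128 μg/ml, at which no growth is visible.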

[2] = system: Staphylococcus aureus clinical strains; format: cell-based; parameters: Minimum inhibitory concentration: unit: μg/ml; settings: microdilution, Muller Hinton broth-cation adjusted, 0.02% BSA, 0.2% acetic acid
Method in brief: as §1

[3] = system: Enterobacter cloacae clinical strains; format: cell-based; parameters: Minimum inhibitory concentration: unit: μg/ml; settings: microdilution, Muller Hinton broth-cation adjusted, 0.02% BSA, 0.2% acetic acid
Method in brief: as §1

[4] = system: Proteus mirabilis clinical strains; format: cell-based; parameters: Minimum inhibitory concentration: unit: μg/ml; settings: microdilution, Muller Hinton broth-cation adjusted, 0.02% BSA, 0.2% acetic acid
Method in brief: as §1

[5] = system: Serratia marcescens clinical strains; format: cell-based; parameters: Minimum inhibitory concentration: unit: μg/ml; settings: microdilution, Muller Hinton broth-cation adjusted, 0.02% BSA, 0.2% acetic acid
Method in brief: as §1

[6] = system: Streptococcus pneumoniae clinical strains; format: cell-based; parameters: Minimum inhibitory concentration: unit: μg/ml; settings: microdilution, Muller Hinton broth-cation adjusted, 0.02% BSA, 0.2% acetic acid
Method in brief: as §1

[7] = system: Escherichia coli clinical strains; format: cell-based; settings: microdilution, Muller Hinton broth-cation adjusted, 0.02% BSA, 0.2% acetic acid
Method in brief: as §1

[8] = system: Klebsiella pneumoniae clinical strains; format: cell-based; settings: microdilution, Muller Hinton broth-cation adjusted, 0.02% BSA, 0.2% acetic acid
Method in brief: as §1

[9] = system: Pseudomonas aeruginosa clinical strains; format: cell-based; settings: microdilution, Muller Hinton broth-cation adjusted, 0.02% BSA, 0.2% acetic acid
Method in brief: as §1

[10] = system: C. glabrata clinical strains; assay: MIC, clinical yeast strains; format: cell-based, Candida glabrata; parameters: unit: µg/ml
Method in brief: as §1

[11] = system: C. parapsilosis clinical strains; assay: MIC, clinical yeast strains; format: cell-based, Candida parapsilosis; parameters: unit: µg/ml
Method in brief: as §1

[12] = system: C. quillermondiae clinical strains; assay: MIC, clinical yeast strains; format: cell-based, Candida quillermondiae; parameters: unit: μg/ml; settings: C. quillermondiae clinical yeast strain 1
Method in brief: as §1

[13] = Candida albicans clinical yeast strain 1
[14] = Candida albicans clinical yeast strain 2
[15] = Candida albicans clinical yeast strain 3
[16] = Candida albicans clinical yeast strain 4
[17] = Candida albicans clinical yeast strain 5
[18] = Staphylococcus aureus clinical strain 1
[19] = Staphylococcus aureus clinical strain 2
[20] = Staphylococcus aureus clinical strain 3
[21] = Staphylococcus aureus clinical strain 4
[22] = Staphylococcus aureus clinical strain 5
[23] = Enterobacter cloacae clinical strain 1
[24] = Enterobacter cloacae clinical strain 2
[25] = Enterobacter cloacae clinical strain 3
[26] = Enterobacter cloacae clinical strain 4
[27] = Enterobacter cloacae clinical strain 5
[28] = Proteus mirabilis clinical strain 1
[29] = Proteus mirabilis clinical strain 2
[30] = Proteus mirabilis clinical strain 3
[31] = Proteus mirabilis clinical strain 4
[32] = Proteus mirabilis clinical strain 5
[33] = Serratia marcescens clinical strain 1
[34] = Serratia marcescens clinical strain 2
[35] = Serratia marcescens clinical strain 3
[36] = Serratia marcescens clinical strain 4
[37] = Serratia marcescens clinical strain 5
[38] = Streptococcus pneumoniae clinical strain 1
[39] = Streptococcus pneumoniae clinical strain 2
[40] = Streptococcus pneumoniae clinical strain 3
[41] = Streptococcus pneumoniae clinical strain 4
[42] = Streptococcus pneumoniae clinical strain 5
[43] = Escherichia coli clinical strain 1
[44] = Escherichia coli clinical strain 2
[45] = Escherichia coli clinical strain 3
[46] = Escherichia coli clinical strain 4
[47] = Escherichia coli clinical strain 5
[48] = Klebsiella pneumoniae clinical strain 1
[49] = Klebsiella pneumoniae clinical strain 2
[50] = Klebsiella pneumoniae clinical strain 3
[51] = Klebsiella pneumoniae clinical strain 4
[52] = Klebsiella pneumoniae clinical strain 5
[53] = Pseudomonas aeruginosa clinical strain 1
[54] = Pseudomonas aeruginosa clinical strain 2
[55] = Pseudomonas aeruginosa clinical strain 3
[56] = Pseudomonas aeruginosa clinical strain 4
[57] = Pseudomonas aeruginosa clinical strain 5
[58] = C. glabrata clinical yeast strain 1
[59] = C. glabrata clinical yeast strain 2
[60] = C. glabrata clinical yeast strain 3
[61] = C. glabrata clinical yeast strain 4
[62] = C. parapsilosis clinical yeast strain 1
[63] = C. parapsilosis clinical yeast strain 2
[64] = C. parapsilosis clinical yeast strain 3
[65] = C. parapsilosis clinical yeast strain 4

For `CC(C)C[C@@H](NC(=O)[C@@H](CCCCN)NC(=O)[C@@H](CCCCN)NC(=O)[C@@H](Cc1ccccc1)NC(=O)[C@@H](CC(C)C)NC(=O)[C@@H](Cc1c[nH]c2ccccc12)NC(=O)[C@@H](CCCNC(=N)N)NC(=O)[C@@H](Cc1c[nH]c2ccccc12)NC(=O)[C@@H](CCCCN)NC(=O)[C@@H](CCCNC(=N)N)NC(=O)[C@H](N)CCCCN)C(=O)O` [Chain310D] (H-[dK][dR][dK][dW][dR][dW][dL][dF][dK][dK][dL]-OH), the Minimum inhibitory concentration [1, 13] was 16, the Minimum inhibitory concentration [1, 14] was 16 and the Minimum inhibitory concentration [1, 15] was 16. The Minimum inhibitory concentration [1, 16] was 16, the Minimum inhibitory concentration [1, 17] was 16 and the Minimum inhibitory concentration [2, 18] was 8. The Minimum inhibitory concentration [2, 19] was 16, the Minimum inhibitory concentration [2, 20] was 8 and the Minimum inhibitory concentration [2, 21] was 8. For the same compound, the Minimum inhibitory concentration [2, 22] was 4, the Minimum inhibitory concentration [3, 23] was 128 and the Minimum inhibitory concentration [3, 24] was 64. It also gave a Minimum inhibitory concentration [3, 25] of 16, a Minimum inhibitory concentration [3, 26] of 8 and a Minimum inhibitory concentration [3, 27] of 16. It also gave a Minimum inhibitory concentration [4, 28] greater than 128, a Minimum inhibitory concentration [4, 29] greater than 128 and a Minimum inhibitory concentration [4, 30] greater than 128. The Minimum inhibitory concentration [4, 31] was greater than 128, the Minimum inhibitory concentration [4, 32] was greater than 128 and the Minimum inhibitory concentration [5, 33] was greater than 128. The Minimum inhibitory concentration [5, 34] was greater than 128, the Minimum inhibitory concentration [5, 35] was greater than 128 and the Minimum inhibitory concentration [5, 36] was greater than 128. The Minimum inhibitory concentration [5, 37] was greater than 128, the Minimum inhibitory concentration [6, 38] was 128 and the Minimum inhibitory concentration [6, 39] was 128. The Minimum inhibitory concentration [6, 40] was 128, the Minimum inhibitory concentration [6, 41] was 128 and the Minimum inhibitory concentration [6, 42] was 64. For the same compound, the Minimum inhibitory concentration [7, 43] was 4, the Minimum inhibitory concentration [7, 44] was 32 and the Minimum inhibitory concentration [7, 45] was 16. For the same compound, the Minimum inhibitory concentration [7, 46] was 16, the Minimum inhibitory concentration [7, 47] was 16 and the Minimum inhibitory concentration [8, 48] was 64. The Minimum inhibitory concentration [8, 49] was 64, the Minimum inhibitory concentration [8, 50] was 128 and the Minimum inhibitory concentration [8, 51] was 64. It also gave a Minimum inhibitory concentration [8, 52] of 32, a Minimum inhibitory concentration [9, 53] of 8 and a Minimum inhibitory concentration [9, 54] of 16. It also gave a Minimum inhibitory concentration [9, 55] of 16, a Minimum inhibitory concentration [9, 56] of 8 and a Minimum inhibitory concentration [9, 57] of 4. For the same compound, the Minimum inhibitory concentration [10, 58] was 16, the Minimum inhibitory concentration [10, 59] was 16 and the Minimum inhibitory concentration [10, 60] was 128. The Minimum inhibitory concentration [10, 61] was 128, the Minimum inhibitory concentration [11, 62] was 64 and the Minimum inhibitory concentration [11, 63] was 64. It also gave a Minimum inhibitory concentration [11, 64] of 64, a Minimum inhibitory concentration [11, 65] of 16 and a Minimum inhibitory concentration [12] of 8.
In the case of `CC(C)C[C@@H](NC(=O)[C@H](N)CCCCN)C(=O)N[C@H](CCCCN)C(=O)N[C@H](Cc1c[nH]c2ccccc12)C(=O)N[C@H](Cc1ccccc1)C(=O)N[C@H](Cc1c[nH]c2ccccc12)C(=O)N[C@H](CC(C)C)C(=O)N[C@H](Cc1ccccc1)C(=O)N[C@H](CCCCN)C(=O)N[C@H](CCCCN)C(=O)N[C@H](CCCNC(=N)N)C(=O)O` [Chain311D] (H-[dK][dL][dK][dW][dF][dW][dL][dF][dK][dK][dR]-OH), the Minimum inhibitory concentration [1, 13] is reported as 8, the Minimum inhibitory concentration [1, 14] is reported as 8 and the Minimum inhibitory concentration [1, 15] is reported as 8. For the same compound, the Minimum inhibitory concentration [1, 16] was 16, the Minimum inhibitory concentration [1, 17] was 16 and the Minimum inhibitory concentration [2, 18] was 1. The Minimum inhibitory concentration [2, 19] was 1, the Minimum inhibitory concentration [2, 20] was 1 and the Minimum inhibitory concentration [2, 21] was 1. The Minimum inhibitory concentration [2, 22] was 1, the Minimum inhibitory concentration [3, 23] was 4 and the Minimum inhibitory concentration [3, 24] was 4. It also gave a Minimum inhibitory concentration [3, 25] of 4, a Minimum inhibitory concentration [3, 26] of 4 and a Minimum inhibitory concentration [3, 27] of 2. For the same compound, the Minimum inhibitory concentration [4, 28] was greater than 128, the Minimum inhibitory concentration [4, 29] was 128 and the Minimum inhibitory concentration [4, 30] was 128. For the same compound, the Minimum inhibitory concentration [4, 31] was greater than 128, the Minimum inhibitory concentration [4, 32] was greater than 128 and the Minimum inhibitory concentration [5, 33] was greater than 128. The Minimum inhibitory concentration [5, 34] was greater than 128, the Minimum inhibitory concentration [5, 35] was greater than 128 and the Minimum inhibitory concentration [5, 36] was greater than 128. For the same compound, the Minimum inhibitory concentration [5, 37] was greater than 128, the Minimum inhibitory concentration [6, 38] was 16 and the Minimum inhibitory concentration [6, 39] was 8. The Minimum inhibitory concentration [6, 40] was 16, the Minimum inhibitory concentration [6, 41] was 4 and the Minimum inhibitory concentration [6, 42] was 8. The Minimum inhibitory concentration [7, 43] was 2, the Minimum inhibitory concentration [7, 44] was 2 and the Minimum inhibitory concentration [7, 45] was 1. It also gave a Minimum inhibitory concentration [7, 46] of 0.5, a Minimum inhibitory concentration [7, 47] of 1 and a Minimum inhibitory concentration [8, 48] of 8. The Minimum inhibitory concentration [8, 49] was 8, the Minimum inhibitory concentration [8, 50] was 4 and the Minimum inhibitory concentration [8, 51] was 8. It also gave a Minimum inhibitory concentration [8, 52] of 4, a Minimum inhibitory concentration [9, 53] of 16 and a Minimum inhibitory concentration [9, 54] of 8. For the same compound, the Minimum inhibitory concentration [9, 55] was 16, the Minimum inhibitory concentration [9, 56] was 8 and the Minimum inhibitory concentration [9, 57] was 4. The Minimum inhibitory concentration [10, 58] was 16, the Minimum inhibitory concentration [10, 59] was 16 and the Minimum inhibitory concentration [10, 60] was 8. The Minimum inhibitory concentration [10, 61] was 64, the Minimum inhibitory concentration [11, 62] was 16 and the Minimum inhibitory concentration [11, 63] was 8. It also gave a Minimum inhibitory concentration [11, 64] of 8, a Minimum inhibitory concentration [11, 65] of 8 and a Minimum inhibitory concentration [12] of 4.
